# Where a SMILES comes first, the peptide text is derived from it. Bridges are numbered along the chain shown (N, C = ends). [ ]: non-standard residue; d: D form. hArg = N=C(N)NCCCC[C@H](N)C(=O)O; Mpa = O=C(O)CCS
# What was measured:
# thrombus size = experiment: Sequential study of thrombotic profile of 20 healthy volunteers on clopidogrel, aspirin and their combination; assay type: in vivo, human; settings: clopidogrel 75 mg/day, aspirin 325 mg/day
# preformed thrombi = experiment: Stability / reversal of preformed thrombi, blood perfused over collagen surface under arterial shear rates; assay type: cell-based, human
# Method: Images are recorded at a frequency of 1 Hz.
# Such assays can be used to detect antithrombotic activity of drugs that will target known effectors of thrombus stability reported in animal models of thrombosis (CD40L, Gas6, SLAM, SAP, Ephrin).
# [1] = tested on: thrombi on type III collagen-coated capillaries; experiment: End-point perfusion chamber assay: effect of anticoagulants on antithrombotic activity of a P2Y12 antagonist; assay type: cell-based, human; settings: 4 minutes at 1000/sec
# Method: Several anticoagulants have been studied for their effects on the antithrombotic activity of a proprietary direct P2Y12 antagonist in the perfusion chamber assay. Whole blood was perfused over type III collagen-coated capillaries for 4 minutes at 1000/sec. At the end of the experiment, thrombotic deposits were rinsed, fixed and stained with toluidine blue for measurement of thrombus size. […] FIG. 10B represents the mean grey level (MGL) of the thrombi present in the area of observation located at 8 mm from the proximal part of the capillary. Corresponding thrombus volume was determined using the graph presented on FIG. 10C. Nonanticoagulated or Factor Xa anticoagulated human blood was perfused through type III collagen-coated capillary chambers (Vitrocom, glass rectangular capillaries 0.2 by 2 mm section) at […] for 4 minutes. After staining of the thrombotic deposits with toluidine blue for 45 seconds, an En Face picture located 8 mm downstream of the proximal part of the capillary was taken. Measurement of the gray level of each thrombus or platelets located in a window 400 μm long×250 μm wide was performed, and results are expressed as mean ±SEM using the Simple PCI software (Compix Inc Imaging System). Measurement of the mean thrombus volume (μm^3/μm^2) was performed at the same location on cross sections of the thrombotic deposits after epon embedding as described by Andre et al. (2003) Circulation 108, 2697-2703. Mean thrombus volume was expressed by use of Simple PCI software and plotted against the corresponding mean grey level. By using data from human in vitro (by titrating with the GPIIb/IIIa antagonist eptifibatide) experiments, a thrombotic profile (FIG. 10C) that was then used for a rapid measurement of the thrombus volume in subsequent experiments Was established
# [2] = tested on: thrombotic process on collagen+tissue factor coated matrix; experiment: Non-anticoagulated blood perfused over fibrillar collagen plus tissue factor matrix; assay type: cell-based; settings: therapeutic dose; arterial shear rates
# From the text: In this method, the thrombotic process can be evaluated with non-anticoagulated samples of blood. Non-anticoagulated samples of blood perfused over a thrombogenic matrix made of fibrillar collagen plus tissue factor generate thrombotic process under both venous and arterial shear rates that is sensitive to the action of different anticoagulants. In FIG. 22, the thrombotic profile, is inhibited by the therapeutic dose of enoxaparin and a factor Xa inhibitor indicating this system can be used to detect the activity of anticoagulants under arterial shear rates. Similarly, this method can be used to detect both platelet and fibrin deposition under venous shear rate conditions using for example fluorescently labeled antibodies directed against fibrin.
# [3] = tested on: thrombotic process triggered by type III collagen; settings: 1000/sec
# Method: The methodology and device described herein allows the monitoring in real time of the deposition of fluorescently labeled platelets into a transparent perfusion chamber (FIG. 11). The thrombosis profiler consists of a custom built epifluorescence microscope to monitor thrombus formation and a syringe pump to establish the desired flow and wall shear rate in the capillary perfusion chamber. A thermostatic sample compartment maintains the blood sample at a temperature of 37° C. Platelets are labeled by adding an aliquot of Rhodamine 6G (final concentration 1.25 μg/ml) to whole blood. […] Excitation and emission light are filtered with a set of fluorescence filters (31002, Chroma Technologies, Rockingham, Vt.). […] Images are recorded at a frequency of 1 Hz. […]
# A software/algorithm has been developed in order to obtain a more representative read out of the thrombus formation over time. […] Since the use of antithrombotic drugs can increase platelet adhesion, thrombus size was represented as the measurement of the fluorescence intensity divided by total area (FIG. 12). […] Once the threshold is determined, pixels with values lower than the threshold are classified as background and pixels with values greater than the threshold are marked as foreground. […]
# platelets = experiment: Whole blood treated with GPIIb/IIIa antagonist perfused over collagen surface: monolayer of adhering platelets; assay type: cell-based; settings: therapeutic dose 2-3 uM
# From the text: P-selectin is responsible for the recruitment of leukocytes on activated/inflamed vessel wall and at sites of platelet deposition. It is known that leukocyte recruitment under these conditions will contribute to atherosclerotic plaque progression. Therefore monitoring the number of leukocyte rolling on adhering platelets could help define people at risk to develop future atherothrombotic events (number of leukocyte recruited as a predictor of future clinical events). Whole blood treated with a GPIIb/IIIa antagonist (e.g. Integrilin at the therapeutic dose 2-3 uM) and perfused over a collagen surface generate a monolayer of adhering platelets. […] Two to three minutes after the start of the perfusion at arterial shear rates of about ˜600/sec, leukocytes stained with rhodamine 6G are being recruited and roll over the adhering platelets. Antithrombotic agents (or agents targeting the P-selectin/PSGL-1 pathway) that will reduce the amount of leukocyte rolling on adhering platelets will therefore potentially reduce the risks of atherothrombotic events.
# thrombus destabilization = settings: two 300 mg loading doses of plavix and daily aspirin
compound,measurement,setting,value
CC(=O)Oc1ccccc1C(=O)O [aspirin],healthy individuals that did not respond to monotherapy,thrombus size,5 out of 20
same,mechanism of effect on thrombosis (thrombus stability),preformed thrombi,affect thrombosis via a mechanism targeting the thrombus stability
hirudin,effect of the anticoagulant on the antithrombotic activity of a P2Y12 antagonist,[1],least impact on the antithrombotic activity of P2Y12 antagonist
enoxaparin,thrombotic profile,[2],inhibited
CCCCCNC(=O)c1coc([C@H]2[C@@H](Cc3ccccc3CCC(=O)O)[C@@H]3CC[C@H]2O3)n1 [Ifetroban],mechanism of effect on thrombosis (thrombus stability),preformed thrombi,affect thrombosis via a mechanism targeting the thrombus stability
same,stability of preformed thrombi,preformed thrombi; 300 nM and 1 uM,significantly altered their stability
CNc1ncnc2c1ncn2[C@H]1C[C@H](OP(=O)(O)O)[C@@H](COP(=O)(O)O)O1 [MRS2179],destabilization / reversal of preformed thrombi,preformed thrombi; 100 uM,did not induced thrombus reversal
same,slope of thrombus growth,"preformed thrombi; 100 uM, added to preformed thrombi",reduced the slope of thrombus growth
CSc1nc(N)c2ncn([C@@H]3O[C@H](COP(=O)(O)O)[C@@H](O)[C@H]3O)c2n1 [2MeSAMP],mechanism of effect on thrombosis (thrombus stability),preformed thrombi,affect thrombosis via a mechanism targeting the thrombus stability
same,destabilization / reversal of preformed thrombi,preformed thrombi; 100 uM,induces the destabilization of preformed thrombi
same,extent of the reversal phenomenon in presence of aspirin,"preformed thrombi; 2MeSAMP at 100 uM, aspirin present",increased in presence of aspirin
O=C(O)CC(O)(CC(=O)O)C(=O)O [Citrate],effect of the anticoagulant on the antithrombotic activity of a P2Y12 antagonist,[1],artificially increased the antithrombotic effects of P2Y12 antagonist
NC(N)=NCCC[C@H](NC(=O)[C@@H]1CCCN1C(=O)[C@H](N)Cc1ccccc1)C(=O)CCl [PPACK],effect of the anticoagulant on the antithrombotic activity of a P2Y12 antagonist,[1],artificially increased the antithrombotic effects of P2Y12 antagonist
N=C(N)NCCCC[C@@H]1NC(=O)CCSSC[C@@H](C(N)=O)NC(=O)[C@@H]2CCCN2C(=O)[C@H](Cc2c[nH]c3ccccc23)NC(=O)[C@H](CC(=O)O)NC(=O)CNC1=O [Integrilin] ([Mpa][hArg]GDWPC-NH2; disulfide 1-7),concentration reaching maximum level of inhibition (therapeutic dose),[3]; Factor Xa-anticoagulated blood,2 µM
same,inhibition of the thrombotic process,[3]; increasing concentrations spiked into Factor Xa-anticoagulated blood,dose-dependently inhibited the thrombotic process
same,platelet activation,platelets,platelet activation is not affected
same,thrombus formation,platelets,thrombus formation is abrogated
COC(=O)[C@H](c1ccccc1Cl)N1CCc2sccc2C1 [clopidogrel],healthy individuals that did not respond to monotherapy,thrombus size,4 out of 20
same,antithrombotic protection in type II diabetic patient,thrombus destabilization,lack of protection
same,mechanism of effect on thrombosis (thrombus stability),preformed thrombi,affect thrombosis via a mechanism targeting the thrombus stability

# Reference: patent US20060211071A1, “Device for aggregating, imaging and analyzing thrombi and a method of use” (Millennium Pharmaceuticals, Inc., priority 2004, published 2006)
